Active and inactive are the calls of the source. The calls are words filed in the database; no cut-off is given here.

In this experiment the target is Glycoprotein (Vesicular stomatitis Indiana virus (strain San Juan) (VSIV)) (UniProt P03522). The experiment in a line: Inhibition of glycoprotein in pseudotyped Vesicular stomatitis virus infected in 293T/ACE2 cells assessed as reduction in viral entry at 10 uM preincubated with virus for 1 hr followed by cell infection and measured after 48 hrs by bright-glo luciferase reporter gene assay. The format is cell-based. As to conditions: time 49.0 hrs. Background: Reporter assays use an easily measured gene product as a stand-in for the process of interest.
Glycoprotein (Vesicular stomatitis Indiana virus (strain San Juan) (VSIV)), sequence (P03522 whole entry): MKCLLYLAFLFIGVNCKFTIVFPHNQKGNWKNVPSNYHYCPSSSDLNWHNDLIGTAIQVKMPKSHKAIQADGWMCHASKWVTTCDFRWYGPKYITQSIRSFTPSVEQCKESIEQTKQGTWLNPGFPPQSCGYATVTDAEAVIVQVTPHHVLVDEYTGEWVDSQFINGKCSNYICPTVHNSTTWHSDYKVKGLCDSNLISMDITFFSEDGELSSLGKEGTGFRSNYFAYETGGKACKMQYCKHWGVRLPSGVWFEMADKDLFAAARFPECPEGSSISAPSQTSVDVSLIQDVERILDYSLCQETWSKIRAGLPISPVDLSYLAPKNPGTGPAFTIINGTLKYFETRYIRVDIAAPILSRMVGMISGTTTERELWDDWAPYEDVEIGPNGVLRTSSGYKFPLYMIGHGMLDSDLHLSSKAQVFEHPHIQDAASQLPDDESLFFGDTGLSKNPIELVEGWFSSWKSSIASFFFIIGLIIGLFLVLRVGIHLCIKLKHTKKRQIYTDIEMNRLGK
In the case of `C=C(C)[C@@H]1CC[C@]2(C(=O)OC)CC[C@]3(C)[C@H](CC[C@@H]4[C@@]5(C)CC[C@H](OC(=O)CCCCCCCCNC(=O)CC[C@@H](C)[C@H]6CC[C@H]7[C@@H]8[C@H](O)[C@H](CC)[C@@H]9C[C@H](O)CC[C@]9(C)[C@H]8CC[C@]67C)C(C)(C)[C@@H]5CC[C@]43C)[C@@H]12`, the inhibition entry was “inactive”.

With `C=C(C)[C@@H]1CC[C@]2(C(=O)OC)CC[C@@]3(C)[C@@H]4CC[C@@H]5[C@H](CC[C@H](OC(=O)CCCCc6cn(CCCCCCNC(=O)CC[C@@H](C)[C@H]7CC[C@H]8[C@@H]9[C@H](O)[C@H](CC)[C@@H]%10C[C@H](O)CC[C@]%10(C)[C@H]9CC[C@]78C)nn6)C5(C)C)[C@H]4CC[C@@H]3[C@@H]12`, the inhibition entry was “inactive”.

For `CC[C@H]1[C@@H](O)[C@@H]2[C@H](CC[C@]3(C)[C@@H]([C@H](C)CCC(=O)NCCCCCCn4cc(CCCCC(=O)O[C@H]5CC[C@H]6[C@@H](CC[C@]7(C)[C@@H]6C(=O)C=C6[C@@H]8C[C@@](C)(C(=O)OC)CC[C@]8(C)CC[C@]67C)C5(C)C)nn4)CC[C@@H]23)[C@@]2(C)CC[C@@H](O)C[C@@H]12`, the inhibition entry is “inactive”.

Turning to `C=C(C)[C@@H]1CC[C@]2(C(=O)OC)CC[C@]3(C)[C@H](CC[C@@H]4[C@@]5(C)CC[C@H](OC(=O)CCCNC(=O)CC[C@@H](C)[C@H]6CC[C@H]7[C@@H]8[C@H](O)[C@H](CC)[C@@H]9C[C@H](O)CC[C@]9(C)[C@H]8CC[C@]67C)C(C)(C)[C@@H]5CC[C@]43C)[C@@H]12`, the inhibition entry was “inactive”.

The record behind these values is ChEMBL document CHEMBL6109077, “Design, synthesis and in vitro validation of bivalent binders of SARS-CoV-2 spike protein: Obeticholic, betulinic and glycyrrhetinic acids as building blocks” (Bioorg Med Chem, 2025).
